Key:
[1] = target: T1, ADAMTS-4 recombinant protein (Homo sapiens, UniProt O75173); assay: In vitro fluorescence (FRET-peptide) enzymatic assay of ADAMTS-4 activity; format: biochemical; details: FRET peptide substrate 15 μM, 10 nM enzyme, 37° C. 3 hours
T1 construct: purchased R&D Systems 4307-AD
T1 sequence (O75173 213-685 limits assumed): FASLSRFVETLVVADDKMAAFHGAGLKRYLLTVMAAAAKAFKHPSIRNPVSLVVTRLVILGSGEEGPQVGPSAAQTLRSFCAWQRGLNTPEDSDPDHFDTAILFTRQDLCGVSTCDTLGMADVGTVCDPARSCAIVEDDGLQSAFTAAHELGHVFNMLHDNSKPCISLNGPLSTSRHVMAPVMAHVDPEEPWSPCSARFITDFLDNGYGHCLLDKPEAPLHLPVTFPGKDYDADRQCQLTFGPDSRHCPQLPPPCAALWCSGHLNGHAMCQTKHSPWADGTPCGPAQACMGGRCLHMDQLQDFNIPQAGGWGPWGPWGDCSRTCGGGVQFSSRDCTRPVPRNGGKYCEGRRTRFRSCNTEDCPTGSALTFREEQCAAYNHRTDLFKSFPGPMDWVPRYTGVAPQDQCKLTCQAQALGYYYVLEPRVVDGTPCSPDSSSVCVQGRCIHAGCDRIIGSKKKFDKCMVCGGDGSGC
Method: (§1) A FRET (fluorescence resonance energy transfer) peptide was cleaved by recombinant ADAMTS-4 or ADAMTS-5 proteins into two separate fragments resulting in an increase of fluorescence signal which was quantified. The peptide was 5-FAM-TEGEARGSVILLK (5-TAMRA)K—NH2, customized from ANASPEC. ADAMTS-4 recombinant protein (4307-AD) and ADAMTS-5 recombinant protein (2198-AD) were purchased from R&D Systems.
(§2) An assay buffer containing 50 mM HEPES pH 7.5, 100 mM NaCl, 5 mM CaCl2, 0.1% CHAPS and 5% Glycerol was prepared. A volume of 2.5 μl of compound in the assay buffer was dispensed to a 384-well plate, and 2.5 μl of ADAMTS-4 or ADAMTS-5 protein (final concentration in the reaction was 10 nM) was added. The compounds and proteins were pre-incubated at room temperature for 15 minutes. Then, 5 μl of substrate was added to each well. The final substrate concentrations for ADAMTS-4 and ADAMTS-5 were 15 μM and 8 μM, respectively. The fluorescence signal in each well was determined, after incubation at 37° C. for 3 hours, on a TECAN plate reader (Excitation, 490 nm; Emission, 520 nm).
(§3) The data was inputted into GraphPad Prism, and the IC50 values were calculated using function “log (inhibitor) vs. response-Variable slope (four parameters)”, (See Table 1)

[2] = test system: mouse femoral head cartilage; assay: Mouse cartilage explant assay (IL-1α induced GAG release); format: cell-based; details: inhibition of GAG release, IL-1α 1 ng/mL, 72 hours; for inhibition at 2 µM: compound 2 μM, read-out: Inhibiton % at 2 μM; for inhibition at 20 µM: compound 20 μM
Method: In this assay, fresh mouse femoral head cartilage was treated with IL-1a protein (Sigma-Aldrich, 12778) in culture media, which induced the cartilage catabolism. Then, the GAGs attached to the cleaved aggrecan fragments (released in the media) and the GAGs attached to the intact aggrecan were measured by dimethylmethylene blue dye in the Glycosaminoglycans Assay Kit (Chondrex, 6022).
Femoral head cartilage samples were isolated from mice (25 days old, male, C57BL/6, from Charles River Lab) and put into 2.0 mL tubes filled-up with media (DMEM, 10% FBS, 4 mM Glutamine, penicillin-streptomycin, 20 mM HEPES). 200 μl of media without FBS was added to each well of a 48-well plate, and one piece of cartilage was transferred to a well in the plate. Then the media was aspirated, and compounds and IL-1α protein were added to the plate in a total volume of 400 μl of fresh media without FBS. The final concentration of IL-1α was 1 ng/mL. The plate was incubated at 37° C. for 72 hours in a humidified incubator with 5% CO2 supply.
The supernatant was transferred to a 1.5 mL tube and kept at −20° C. Each cartilage sample was transferred to another 1.5 mL tube containing 400 μl of freshly made papain solution. The papain solution contained 125 μg/mL papain (Sigma-Aldrich, P3125), 0.1 M sodium acetate (Sigma-Aldrich. S7899), pH 5.5 and 5 mM EDTA and 5 mM L-cysteine-HCl (Sigma-Aldrich, C7880). The cartilage samples were kept rocking in a 60° C. water bath for 24 hours.
The lysates were vortexed for 10 seconds and spinned at 10,000 rpm for 2 minutes. Both the supernatant and the lysate samples were diluted with PBS and mixed with 100 μL of dye from the Glycosaminoglycans Assay Kit. The optical density from each well was determined with a TECAN plate reader set to a wavelength of 525 nm,
The concentrations of GAGs in the supernatant and lysates were determined based on the standard curve with a dose range of chondroitin sulfate provided in the kit. The percentage of GAG release was calculated as the following: […]
The test compound effect was expressed as the percent of inhibition using the following formula: […]

[3] = target: T2, ADAMTS-5 recombinant protein (Homo sapiens, UniProt Q9UNA0); assay: In vitro fluorescence (FRET-peptide) enzymatic assay of ADAMTS-5 activity; format: biochemical; details: FRET peptide substrate 8 μM, 10 nM enzyme, 37° C. 3 hours
T2 construct: purchased R&D Systems 2198-AD
T2 sequence (Q9UNA0 262-622 limits assumed): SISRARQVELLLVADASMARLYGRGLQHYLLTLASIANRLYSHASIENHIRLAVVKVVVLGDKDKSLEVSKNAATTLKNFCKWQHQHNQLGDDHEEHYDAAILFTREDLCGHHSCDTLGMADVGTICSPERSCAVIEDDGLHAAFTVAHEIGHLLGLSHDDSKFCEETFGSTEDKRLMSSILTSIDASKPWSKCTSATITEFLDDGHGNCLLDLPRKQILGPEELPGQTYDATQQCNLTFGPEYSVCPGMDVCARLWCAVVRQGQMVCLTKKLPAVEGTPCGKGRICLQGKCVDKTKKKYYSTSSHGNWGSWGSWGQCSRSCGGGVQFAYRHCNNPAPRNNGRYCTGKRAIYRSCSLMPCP
Method: as §1, §2, §3

[4] = target: T2, ADAMTS-5 recombinant protein; assay: Aggrecan-IGD enzymatic assay for ADAMTS-5 inhibitors (ARGSVIL-peptide ELISA); format: biochemical; details: aggrecan-IGD protein substrate, 37° C. 45 minutes
Method: In this assay, the enzymatic activity of recombinant ADAMTS-5 protein (2198-AD, R&D Systems) was assayed with a protein substrate, the aggrecan IGD protein. The aggrecan IGD protein is a polypeptide connecting human aggrecan globular domains 1 and 2 (T331-G458) expressed in E. coli with a C-terminal His-tag (BIOTEZ, 30411000). The enzymatic product ARGSVIL-peptide was detected using an ELISA kit from BioTEZ (30510111). An assay buffer containing 50 mM HEPES pH 7.5, 100 mM NaCl, 5 mM CaCl2, 0.1% CHAPS and 5% Glycerol was prepared. Recombinant ADAMTS-5 protein was diluted to 0.3 nM in the assay buffer. Ten μL of buffer and 10 μl of compound solution was transferred to each well of a 96-well plate and incubated at room temperature for 15 minutes. Substrate aggrecan-IGD was diluted to 100 nM with the assay buffer and 20 μl was added to each well. The plate was incubated at 37° C. for 45 minutes. After incubation, the newly generated epitope ARGSVIL-peptides were measured using the Aggrecanase Activity ELISA Assay Kit following the manufacturer's instructions. Then, 100 μl of stop solution was added and the absorbance of each well was read at 450 nm, using […] as reference on a TECAN plate reader.
A standard curve of the ELISA assay was generated in GraphPad Prism using Sigmoidal 4PL function and the corresponding peptide concentrations were calculated based on the standard curve. The IC50 values were calculated using function “log (inhibitor) vs. response-Variable slope (four parameters)”. (See Table 2).

| IC50 [1] | IC50 [3] | IC50 [4] | SMILES | inhibition at 2 µM [2] | inhibition at 20 µM [2] |
| --- | --- | --- | --- | --- | --- |
| 0.016 µM | 0.023 µM | 0.026 µM | O=C1NC(=O)[C@](CNC(=O)N2Cc3cc(Cl)c(Cl)cc3C2)(C2CC2)N1 [Example 1-2, (R)-5,6-dichloro-N-((4-cyclopropyl-2,5-dioxoimidazolidin-4-yl)methyl)isoindoline-2-carboxamide] | 47% | 87% |
| 0.28 µM | 0.1 µM | 0.14 µM | O=C1NC(=O)C(CNC(=O)N2Cc3ccc(C(F)(F)F)cc3C2)(C2CC2)N1 (stereo not shown) [Example 4, N-((4-cyclopropyl-2,5-dioxoimidazolidin-4-yl)methyl)-5-(trifluoromethyl)isoindoline-2-carboxamide] | 0% | 94% |
| 0.039 µM | 0.04 µM | 0.04 µM | O=C1NC(=O)[C@](CNC(=O)N2Cc3cc(Cl)c(C(F)(F)F)cc3C2)(C2CC2)N1 [Example 3, (R)-5-chloro-N-((4-cyclopropyl-2,5-dioxoimidazolidin-4-yl)methyl)-6-(trifluoromethyl)isoindoline-2-carboxamide] |  |  |
| 0.092 µM | 0.03 µM |  | [2H]C1([2H])c2cc(Cl)c(Cl)cc2C(C)N1C(=O)NC[C@@]1(C2CC2)NC(=O)NC1=O (stereo partly drawn) [Example 11, 5,6-dichloro-N—(((R)-4-cyclopropyl-2,5-dioxoimidazolidin-4-yl)methyl)-1-methylisoindoline-3,3-d2-2-carboxamide] |  |  |
| 0.012 µM | 0.008 µM | 0.017 µM | C[C@@H]1c2cc(C(F)(F)F)c(Cl)cc2CN1C(=O)NC[C@@]1(C2CC2)NC(=O)NC1=O [Example 8-1, (R)-5-chloro-N—(((R)-4-cyclopropyl-2,5-dioxoimidazolidin-4-yl)methyl)-1-methyl-6-(trifluoromethyl)isoindoline-2-carboxamide] | 61% | 95% |
| 0.031 µM | 0.038 µM | 0.06 µM | O=C1NC(=O)C(CNC(=O)N2Cc3cc(Cl)c(Cl)cc3C2)(C2CC2)N1 (stereo not shown) [Example 1, 5,6-dichloro-N-((4-cyclopropyl-2,5-dioxoimidazolidin-4-yl)methyl)isoindoline-2-carboxamide] |  |  |
| 0.033 µM | 0.022 µM | 0.034 µM | CC1c2cc(C(F)(F)F)c(Cl)cc2CN1C(=O)NC[C@@]1(C2CC2)NC(=O)NC1=O (stereo partly drawn) [Example 8, 5-chloro-N—(((R)-4-cyclopropyl-2,5-dioxoimidazolidin-4-yl)methyl)-1-methyl-6-(trifluoromethyl)isoindoline-2-carboxamide] |  |  |
| 0.053 µM | 0.03 µM | 0.034 µM | [2H]C1([2H])c2cc(Cl)c(C(F)(F)F)cc2C(C)N1C(=O)NC[C@@]1(C2CC2)NC(=O)NC1=O (stereo partly drawn) [Example 9, 5-chloro-N—(((R)-4-cyclopropyl-2,5-dioxoimidazolidin-4-yl)methyl)-1-methyl-6-(trifluoromethyl)isoindoline-3,3-d2-2-carboxamide] |  |  |
| 0.042 µM | 0.036 µM | 0.044 µM | CC1c2cc(Cl)c(Cl)cc2CN1C(=O)NC[C@@]1(C2CC2)NC(=O)NC1=O (stereo partly drawn) [Example 2, 5,6-dichloro-N—(((R)-4-cyclopropyl-2,5-dioxoimidazolidin-4-yl)methyl)-1-methylisoindoline-2-carboxamide] |  |  |
| 0.034 µM | 0.009 µM | 0.017 µM | C[C@@H]1c2cc(Cl)c(Cl)cc2CN1C(=O)NC[C@@]1(C2CC2)NC(=O)NC1=O [Example 2-1, (R)-5,6-dichloro-N—(((R)-4-cyclopropyl-2,5-dioxoimidazolidin-4-yl)methyl)-1-methylisoindoline-2-carboxamide] | 14% | 86% |

From US20220009909A1, “ADAMTS INHIBITORS, PREPARATION METHODS AND MEDICINAL USES THEREOF” (Eternity Bioscience Inc., priority 2020, published 2022)
